From US20100183600A1, “RAF Inhibitors and Their Uses” (ARQULE, INC., priority 2008, published 2010)
Values after ≈ are worked out from the molar mass of the structure shown. “Also recorded” adds a separate entry of the source. Each block holds one compound with its values, some of them ahead of it.

Legend:
human tumors (A375) = assay: Xenograft model in athymic mice; type: in vivo, mouse
Experimental: Compound 17 was injected intra-peritoneally (IP) at 160 mg/kg and compound 19 was injected IP at 300 mg/kg (equivalent dose if expressed in mmole/kg, taking into account salt components).
A mouse xenograft model was performed according to the method of Jacob et al, Gene Ther Mol Biol 2004; 8:213-219 and Wilhelm et al, Cancer Research 2004; 64: 7099-7109.
Animal Care. Six week old female NCr nu/nu mice were purchased from Taconic Farms, Germantown, N.Y. and allowed to acclimate 1-2 weeks. Mice were housed in sterile micro isolator cages, 5 mice per cage and receive food and water ad libitum. All experimental procedures and surgical manipulations were approved in accordance with ArQule's Institutional Animal Care and Use Committee (IACUC).
Tumor Cell Lines and Model. Carcinoma cell lines were obtained from and propagated as recommended by American Type Tissue Culture (ATCC), (Manassas, Va.). Mice were implanted subcutaneously with 2.5-10×10^6 cells in 0.1 ml sterile Hanks Balanced Salt Solution (HBSS) in the upper right flank area. […] Tumor weight (mg) was calculated from the equation length×(width)^2)/2; this formula can also be used to calculate tumor volume assuming unit density 1 mg=1 mm^3 Percent inhibition or tumor growth inhibition (TGI) was calculated using the following formula: 1-[mean tumor value of treated/mean tumor value of control]×100. […]

[1] = Equilibrium solubility at varying pH (shake flask); type: physicochemical; settings: for solubility: 25 °C, thermodynamic from solid
Experimental: Solubility of the compounds was determined by the traditional shake flask method. Aliquots of solid compounds were mixed with an appropriate buffer of the desired pH and equilibrated by shaking at room temperature (˜25° C.) for 6-24 hours. Following aqueous buffers were used for the pH control: 0.1N HCl pH=1.2, 50 mM Lactate buffer pH=3.0, 50 mM Acetate buffer pH=5.0, and 100 mM Phosphate buffer pH 7.4. After equilibration, samples were filtered through a 0.45 um filter and analyzed by HPLC/UV against the calibration curves of standard solution.

BDCM = assay: Cell growth inhibition assay (MTS); type: cell-based; settings: Homo sapiens, lymphoblast
Experimental: (§1) Compounds of the present invention have been tested for activity against a variety of cancer cell lines. The ability of compounds to inhibit cell growth in this assay is correlated with the reduction of dehydrogenase enzyme activity found in metabolically active cells.
(§2) Materials: A large variety of cancer cells from ATCC were maintained at 37° C., 5% CO2 in DMEM media supplemented with 10% fetal bovine serum, penicillin/streptomycin and fungizone (Invitrogen). NCM460 (Incell), a normal colon epithelial cell line, and human mammary epithelial cells (Cambrex) were maintained at 37° C., 5% CO2 in DMEM and HEBM media (Cambrex), respectively.
(§3) Methods: Test compounds were dissolved and diluted to 300× in DMSO then diluted 1:40 in DMEM. Cells were seeded into 96-well tissue culture plates at 1-5×10^3 per well and cultured at 37° C. for 24 h. Cells were incubated with test compounds for 72 hours followed by incubation with tetrazolium compound (3-(4,5-dimethylthiazol-2-yl)-5-(3-carboxymethoxyphenyl)-2-(4-sulfophenyl)-2H-tetrazolium, inner salt; MTS) and the electron coupling reagent, phenazine methosulfate (PMS) for 4 hr. […] The measurement of the absorbance of the formazan was assessed using an ENVISION™ (Perkin Elmer) microplate reader at 492 nm. The calculated IC50 value is the concentration of the test compound that causes a 50% decrease in the absorbance.

HEC1A = assay: Cell growth inhibition assay (MTS); type: cell-based; settings: Homo sapiens, HEC-1-A, endometrial
Experimental: as §1, §2, §3

MDAMB-231 = assay: Cell growth inhibition assay (MTS); type: cell-based; settings: Homo sapiens, MDA-MB-231; MDAMB-231, breast adenocarcinoma
Experimental: as §1, §2, §3

DU145 = assay: Cell growth inhibition assay (MTS); type: cell-based; settings: Homo sapiens, DU-145; DU145, prostate
Experimental: as §1, §2, §3

KG-1a = assay: Cell growth inhibition assay (MTS); type: cell-based; settings: Homo sapiens, AML
Experimental: as §1, §2, §3

A427 = assay: Cell growth inhibition assay (MTS); type: cell-based; settings: Homo sapiens, A-427; A427, lung Carcinoma
Experimental: as §1, §2, §3

CC5292 = assay: Cell growth inhibition assay (MTS); type: cell-based; settings: Homo sapiens; CC5292, MiT
Experimental: as §1, §2, §3

HT29 = assay: Cell growth inhibition assay (MTS); type: cell-based; settings: Homo sapiens, HT-29; HT29, colorectal carcinoma
Experimental: as §1, §2, §3

K562 = assay: Cell growth inhibition assay (MTS); type: cell-based; settings: Homo sapiens; K562, CML
Experimental: as §1, §2, §3

SK-HEP-1 = assay: Cell growth inhibition assay (MTS); type: cell-based; settings: Homo sapiens, SK-HEP1; SK-HEP-1, liver adenocarcinoma
Experimental: as §1, §2, §3

NCI-H460 = assay: Cell growth inhibition assay (MTS); type: cell-based; settings: Homo sapiens; NCI-H460, large cell lung carcinoma
Experimental: as §1, §2, §3

CAKI-2 = assay: Cell growth inhibition assay (MTS); type: cell-based; settings: Homo sapiens; CAKI-2, kidney
Experimental: as §1, §2, §3

HCT-15 = assay: Cell growth inhibition assay (MTS); type: cell-based; settings: Homo sapiens; HCT-15, colon
Experimental: as §1, §2, §3

LS411N = assay: Cell growth inhibition assay (MTS); type: cell-based; settings: Homo sapiens, LS-411N, colorectal carcinoma
Experimental: as §1, §2, §3

HCT-116 = assay: Cell growth inhibition assay (MTS); type: cell-based; settings: Homo sapiens; HCT-116, colon
Experimental: as §1, §2, §3

KG-1 = assay: Cell growth inhibition assay (MTS); type: cell-based; settings: Homo sapiens; KG-1, AML
Experimental: as §1, §2, §3

THP-1 = assay: Cell growth inhibition assay (MTS); type: cell-based; settings: Homo sapiens; THP-1, acute monocytic leukemia
Experimental: as §1, §2, §3

SKMES-1 = assay: Cell growth inhibition assay (MTS); type: cell-based; settings: Homo sapiens, SK-MES-1; SKMES-1, squamous cell carcinoma
Experimental: as §1, §2, §3

NCI-H1299 = assay: Cell growth inhibition assay (MTS); type: cell-based; settings: Homo sapiens; NCI-H1299, non-small cell lung carcinoma
Experimental: as §1, §2, §3

CAKI-1 = assay: Cell growth inhibition assay (MTS); type: cell-based; settings: Homo sapiens; CAKI-1, kidney
Experimental: as §1, §2, §3

[2] = aqueous buffer (0.1N HCl), pH 1.2, simulated gastric fluid

solubility ([1]; aqueous buffer (50 mM lactate buffer), aqueous buffer, pH 3.0): 10 µg/mL (≈ 19.2 µM)
solubility [1, 2]: 1050 µg/mL (≈ 2020 µM)
Aqueous solubility ([1]; pH 5.0): insoluble
Aqueous solubility ([1]; pH 7.4): insoluble
SMILES: Cn1ccc(S(=O)(=O)N2CCC[C@@H](Nc3nccc(-c4c(-c5cccc(O)c5)nc5occn45)n3)C2)n1 [Compound 17, (R)-3-(5-(2-(1-(1-methyl-1H-pyrazol-3-ylsulfonyl)piperidin-3-ylamino)pyrimidin-4-yl)imidazo[2,1-b]oxazol-6-yl)phenol]
anti-tumor activity in a xenograft cancer model (human tumors (A375); IP at 160 mg/kg, FIG. 3, 160 mg/kg): retain their anti-tumor activity; also recorded: equally effective

solubility ([1]; aqueous buffer (50 mM acetate buffer), aqueous buffer, pH 5.0): > 13000 µg/mL
solubility ([1]; aqueous buffer (100 mM phosphate buffer), pH 7.4, aqueous buffer): > 300000 µg/mL
solubility [1, 2]: < 1300 µg/mL
solubility in aqueous solution compared with compound 17 ([1]; at or near biologically relevant pH): dramatically more soluble
GI50 (MDAMB-231): 28.2 µM
GI50 (DU145): 9.62 µM
GI50 (HT29): 5.03 µM
GI50 (K562): 9.86 µM
GI50 (SK-HEP-1): 7.22 µM
GI50 (NCI-H460): 19.3 µM
GI50 (HCT-15): 23.2 µM
GI50 (HCT-116): 6.61 µM
GI50 (THP-1): 10.3 µM
GI50 (SKMES-1): 9.02 µM
GI50 (NCI-H1299): 6.38 µM
SMILES: Cn1ccc(S(=O)(=O)N2CCC[C@@H](Nc3nccc(-c4c(-c5cccc(OCOP(=O)(O)O)c5)nc5occn45)n3)C2)n1 [Compound 19, (R)-(3-(5-(2-(1-(1-methyl-1H-pyrazol-3-ylsulfonyl)piperidin-3-ylamino)pyrimidin-4-yl)imidazo[2,1-b]oxazol-6-yl)phenoxy)methyl dihydrogen phosphate]
anti-tumor activity in a xenograft cancer model (human tumors (A375); IP at 300 mg/kg, FIG. 3, 300 mg/kg): retain their anti-tumor activity; also recorded: equally effective
GI50 (BDCM): 32.7 µM
GI50 (HEC1A): 2.72 µM
GI50 (KG-1a): 11.5 µM
GI50 (A427): 3.23 µM
GI50 (CC5292): 8.2 µM
GI50 (CAKI-2): 26.2 µM
GI50 (LS411N): 0.31 µM
GI50 (KG-1): 30.8 µM
GI50 (CAKI-1): 30.3 µM
